pIC50: −log10 of the molar value.
Target: T1, Histone acetyltransferase KAT6A [507-778] (Homo sapiens, UniProt Q92794)
T1 construct: 507-778
Test: Inhibition of KAT6A Enzyme Activity Assay
Experimental: 1× experimental buffer (modified Tris buffer) was prepared, and the compounds were dissolved with 100% DMSO to form 10 mM reservoir solution and diluted according to a certain concentration gradient. The compounds were transferred to a 384-well plate using an automatic sampler Echo, and the final concentration of DMSO was 1%. 1× KAT6A enzyme (catalytic domain) solution was prepared. A mixed solution of [3H]-acetyl-CoA (PERKIN ELMER, Cat. No. NET290250UC) and the substrate peptide H3 (1-21) was prepared. 10 μL of the enzyme solution was transferred to the 384-well plate and incubated at room temperature for 15 minutes. 10 μL of the mixed solution of [3H]-acetyl-CoA and the substrate peptide H3 (1-21) were added to the plate to initiate the reaction. The plate was incubated at room temperature for 1 hour. 10 μL of the stop solution was added to terminate the reaction. 25 μL of the reaction solution was transferred to a Flashplate (Perkin Elmer, Cat. No. SMP410A001PK) and incubated at room temperature for 1 hour. The plate was read using Microbeta. The inhibition rate of the compounds was calculated using the formula of Excel: inhibition %=(Max-Signal)/(Max−Min)*100%. Where max is the value of the DMSO control, min is the value of the non-enzymatic control, and signal is the value of the well where the compound was tested.

T1 sequence (Q92794 507-778): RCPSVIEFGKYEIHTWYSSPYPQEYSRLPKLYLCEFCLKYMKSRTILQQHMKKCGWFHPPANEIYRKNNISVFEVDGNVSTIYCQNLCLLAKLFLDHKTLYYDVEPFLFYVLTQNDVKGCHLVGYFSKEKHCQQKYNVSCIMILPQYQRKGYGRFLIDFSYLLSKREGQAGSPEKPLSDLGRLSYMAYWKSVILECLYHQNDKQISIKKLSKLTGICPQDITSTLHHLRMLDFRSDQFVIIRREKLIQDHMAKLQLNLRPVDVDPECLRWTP

COc1cc(C#Cc2cccnc2)cc(O)c1S(=O)(=O)Nc1noc2cc(Cn3cccn3)cc(OC)c12 [US20240400545, Compound 19']
pIC50: > 8.00

COc1ccc(N2CCN(C)CC2)cc1S(=O)(=O)Nc1noc2cc(Cn3cccn3)cc(OC)c12 [US20240400545, Compound 5]
pIC50: > 6.70

COc1cc(C#CC2CN(C(=O)OC(C)(C)C)C2)cc(OC)c1S(=O)(=O)Nc1noc2cc(Cn3cccn3)cc(OC)c12 [US20240400545, Compound 20]
pIC50: > 8.30

COc1cc(C#CC2CN(C)C2)ccc1S(=O)(=O)Nc1noc2cc(Cn3cccn3)cc(OC)c12 [US20240400545, Compound 24]
pIC50: > 7.70

CC#Cc1cccc(OC)c1S(=O)(=O)Nc1noc2cc(Cn3cccn3)cc(OC)c12 [US20240400545, Compound 23]
pIC50: > 7.70

CC#Cc1ccc(OC)c(S(=O)(=O)Nc2noc3cc(Cn4cccn4)cc(OC)c23)c1 [US20240400545, Compound 13]
pIC50: > 7.70

COc1ccc(C#CC2CC2)cc1S(=O)(=O)NC(=O)c1cc2ccc(N(C)C)cc2o1 [US20240400545, Compound 8]
pIC50: > 6.00

COc1cc(C#Cc2cccnc2)cc(OC)c1S(=O)(=O)Nc1noc2cc(Cn3cccn3)cc(OC)c12 [US20240400545, Compound 19]
pIC50: > 8.30

CC#Cc1cc(OC)c(S(=O)(=O)Nc2noc3cc(Cn4cccn4)cc(OC)c23)c(OC)c1 [US20240400545, Compound 9]
pIC50: > 8.00

COc1cc(C#CC2CC2)ccc1S(=O)(=O)Nc1noc2cc(Cn3cccn3)cc(OC)c12 [US20240400545, Compound 12]
pIC50: > 8.00

COc1cc(C#CC2CC2)cc(OC)c1S(=O)(=O)Nc1noc2cc(Cn3cccn3)cc(OC)c12 [US20240400545, Compound 10]
pIC50: > 8.30

C#Cc1ccc(S(=O)(=O)Nc2noc3cc(Cn4cccn4)cc(OC)c23)c(OC)c1 [US20240400545, Compound 11]
pIC50: > 8.00

COc1ccc(C#CC2CC2)cc1S(=O)(=O)Nc1noc2cc(Cn3cccn3)cc(OC)c12 [US20240400545, Compound 7]
pIC50: > 8.00

COc1cc(C#CC2CNC2)cc(OC)c1S(=O)(=O)Nc1noc2cc(Cn3cccn3)cc(OC)c12 [US20240400545, Compound 21]
pIC50: > 8.00

COc1ccc(N2CCOCC2)cc1S(=O)(=O)Nc1noc2cc(Cn3cccn3)cc(OC)c12 [US20240400545, Compound 6]
pIC50: > 7.00

COc1cc(C#CC2CN(C)C2)cc(OC)c1S(=O)(=O)Nc1noc2cc(Cn3cccn3)cc(OC)c12 [US20240400545, Compound 22]
pIC50: > 7.70

COc1cc(C#CC2CC(F)(F)C2)cc(OC)c1S(=O)(=O)Nc1noc2cc(Cn3cccn3)cc(OC)c12 [US20240400545, Compound 15]
pIC50: > 8.30

C#Cc1ccc(OC)c(S(=O)(=O)Nc2noc3cc(Cn4cccn4)cc(OC)c23)c1 [US20240400545, Compound 3]
pIC50: > 7.70

CC#Cc1ccc(S(=O)(=O)Nc2noc3cc(Cn4cccn4)cc(OC)c23)c(OC)c1 [US20240400545, Compound 16]
pIC50: > 8.00
